Like-named read-outs stand apart in the source and are kept apart here.
Key:
[1] = Cardiac tissue concentrations in anesthetized guinea pigs; type: in vivo, guinea pig; conditions: end of IV infusions, prodrug alone or + amiodarone
[2] = system: hiPSC-CM syncytia; experiment: Spontaneous FP rate and IMP amplitude/beating rate in hiPSC-CM syncytia (RTCA CardioECR / RTCA Cardio); type: cell-based, human; conditions: for Effect on FP rate / Effect on IMP amplitude: prodrug co-administered with 0.3 μM amiodarone, steady state (4 h), spontaneously beating hiPSC-CM syncytia
Protocol: hiPSC-CMs (iCells®) from Cellular Dynamics International (CDI, Madison, WI, USA) were seeded onto 48-well CardioECR or 96-well Cardio E-Plates® (ACEA Biosciences Inc., San Diego, CA, USA) coated with 10 μg/mL fibronectin (Sigma Aldrich, Catalog# F1141) at 30,000 cells/well, following manufacturer’s recommendations. Cells were maintained in culture (37 °C, 5% CO2) for a period of 14 days with iCell Maintenance® media (CDI, Madison, WI, USA) exchanged every 2–3 days. Compound addition was only performed on or after Day 14 following cell seeding.
Compound stock solutions were prepared in 100% DMSO or H2O. On the day of compound addition, the media was exchanged with fresh iCell Maintenance® media and allowed to equilibrate for at least 3 h in the incubator. The plates were read on an xCELLigence® RTCA CardioECR or RTCA Cardio (ACEA Biosciences Inc., San Diego, CA, USA). Control pre-reads to establish a baseline were recorded for at least 45 minutes (4 reads at 15-min intervals) prior to compound addition. The compound stock solutions were diluted into iCell Maintenance® media and quickly added to the plate. The plate was continuously monitored for at least 18 h following compound addition. IMP data were sampled at 12 ms (83 Hz), while FP rate data were collected at 0.1 ms (10 KHz). Attachment, growth and viability of syncytia were monitored by means of the baseline IMP signal, as previously described. IMP and FP signals were only interpreted if the baseline IMP was maintained throughout the measurement period (usually ≤18 hrs) at ≥70% of the value before test compound application (pre-read value).

[3] = system: hiPSC-CMs; experiment: Intracellular prodrug, cleavage intermediate metabolite and NTP metabolite concentrations in hiPSC-CMs; type: in vitro ADME, human
Protocol: Approximately 18 h before dosing, iCell hiPSC-CMs were switched to iCell cardiomyocyte maintenance media free of Penicillin/Streptomycin. […] […] After the corresponding treatment, cells were washed 2x with 200 μL of ice-cold magnesium- and calcium-free PBS buffer. Cells were then lysed in 100 μL of ice-cold lysis solution (70/30 methanol/water containing 20 mM EDTA and 20 mM EGTA, pH 8) by pipetting up and down 5 times. Plates were sealed and transferred on dry ice for determination of prodrug, cleavage intermediate metabolite, and NTP metabolite concentrations. Intracellular prodrug concentrations were measured using a reversed phase HPLC- high resolution mass spectrometry method. A dimethylhexylamine based ion-pairing HPLC-MS/MS method was used to measure intracellular cleavage intermediate metabolite and NTP metabolite concentrations. Intracellular concentrations (pmol/million cells) of prodrug, cleavage intermediate metabolite, and NTP metabolite were quantitated against calibration standards of the same analytes prepared from control iCell hiPSC-CM lysates.
For prodrug analyses, full scan high resolution mass spectrometry data was collected using an Exactive™ Orbitrap mass spectrometer with an electrospray source operated in the positive ion mode. Prodrug chromatograms were extracted from full scan high resolution mass spectrometry data for the masses indicated in Supplementary Table 5. Absence of endogenous interference(s) was verified by extracting the same ion from full scan high resolution mass spectrometry chromatograms of unspiked control cell lysates. For the cleavage intermediate metabolite and NTP metabolite an electrospray MS/MS method run on a SCIEX API 4000 mass spectrometer with turboV ionspray source was used in negative ion mode monitoring the transitions indicated in Supplementary Table 5. Absence of endogenous interference(s) was verified by monitoring of the same MRM transitions for unspiked control cell lysates. Measured intracellular prodrug, cleavage intermediate metabolite, and NTP metabolite concentrations (in pmol/million cells units) were tabulated (Table 2).

[4] = anesthetized guinea pigs, cited from earlier work
[5] = system: anesthetized, male Dunkin-Hartley guinea pigs; experiment: Heart rate in anesthetized guinea pigs, IV infusion; type: in vivo, guinea pig
Excerpt: Adult, male Dunkin-Hartley guinea pigs (350–550 g) were anesthetized and instrumented as previously described[7][29].

[6] = system: conscious, male rhesus monkeys; experiment: Heart rate, MBP and ECG intervals in conscious, restrained rhesus monkeys; type: in vivo, rhesus monkey
Protocol: (§1) Arterial BP and ECG waveforms from four chronically-instrumented male, rhesus monkeys (8-16 kg at time of study, approximately 5–8 years of age), were continuously recorded (Notocord-hem™ v 4.3.0.67) and analyzed as described. Prior to study, animals were acclimated to the restraint chair and the laboratory environment over multiple sessions. […] MNI-2 was formulated in 30% Captisol®. […] Samples were placed on wet ice, centrifuged at 4 °C and plasma removed and stored at −70 °C until analysis of concentration of test agents and any metabolites of interest.

[7] = Plasma concentration in conscious rhesus monkeys; conditions: at the end of the MNI-2+amiodarone experiment
Protocol: as §1

[8] = Plasma concentration in anesthetized guinea pigs; conditions: IV
Excerpt: Adult, male Dunkin-Hartley guinea pigs (350–550 g) were anesthetized and instrumented as previously described.

[9] = system: anesthetized, male Dunkin-Hartley guinea pigs; conditions: cumulative IV infusion dose 2.5 mg/kg amiodarone alone; cited from earlier work
[10] = 10 μM prodrug in the presence of 0.3 μM amiodarone
[11] = 30 Min, SOF-3 mM, SOF + A (0.3 µM amiodarone) + Ebel, LOQ=17
[12] = hiPSC-CMs, 10 μM prodrug + 0.3 μM amiodarone, 4 Hours
[13] = hiPSC-CMs, 10 μM prodrug + 0.3 μM amiodarone, 30 Min
[14] = hiPSC-CMs, 10 μM prodrug + 0.3 μM amiodarone, 30 Min, BLOQ = below 17 pmol/million cells
[15] = hiPSC-CMs, 10 μM prodrug alone, 4 Hours
[16] = hiPSC-CMs, 10 μM prodrug alone, 30 Min
[17] = hiPSC-CMs, 10 μM prodrug alone, 30 Min, BLOQ = below 17 pmol/million cells
[18] = hiPSC-CMs, 10 μM prodrug + 0.3 μM amiodarone, 4 Hours, BLOQ = below 17 pmol/million cells
[19] = hiPSC-CMs, 10 μM prodrug alone, 4 Hours, BLOQ = below 17 pmol/million cells

CC(C)OC(=O)[C@H](C)NP(=O)(OC[C@H]1O[C@@H](n2ccc(=O)[nH]c2=O)[C@](C)(F)[C@@H]1O)Oc1ccccc1 (stereo partly drawn) [sofosbuvir, isopropyl (2S)-2-[[[(2R,3R,4R,5R)-5-(2,4-dioxopyrimidin-1-yl)-4-fluoro-3-hydroxy-4-methyl-tetrahydrofuran-2-yl]methoxy-phenoxy-phosphoryl]amino]propanoate, reference compound]
Cleavage intermediate metabolite and NTP metabolite in cardiac tissue [1]: present
Change in IMP amplitude (RTCA Cardio) [2, 10]: −97% ± 2%
Change in beating rate (IMP-measured, RTCA Cardio) [2, 10]: +146% ± 11%
IMP amplitude ([2]; 11 μM sofosbuvir co-applied with 0.3 μM amiodarone): below the limit of detection
Effect on FP rate [2]: Concentration-dependent, steady-state effects
Effect on IMP amplitude [2]: Concentration-dependent, steady-state effects
Intracellular Concentration, Sofosbuvir (Prodrug) ([3]; 4 Hours, SOF-10 μM, SOF): 66.9 ± 6.8 pmol/million cells
Intracellular Concentration, Sofosbuvir (Prodrug) ([3]; 4 Hours, SOF-3 mM, SOF): 19.6 ± 5.8 pmol/million cells
Intracellular Concentration, Sofosbuvir (Prodrug) ([3]; 4 Hours, SOF-3 mM, SOF + A (0.3 µM amiodarone) + Ebel): 46.9 ± 8.9 pmol/million cells
Intracellular Concentration, NTP Metabolite ([3]; 4 Hours, SOF-3 mM, SOF + A (0.3 µM amiodarone) + Ebel, LOQ=17): B LOQ
Intracellular Concentration, NTP Metabolite ([3]; 4 Hours, SOF-3 mM, SOF, LOQ=17): B LOQ
Intracellular Concentration, NTP Metabolite ([3]; 4 Hours, SOF-10 mM, SOF + A (0.3 µM amiodarone) + Ebel, LOQ=17): B LOQ
Intracellular Concentration, Sofosbuvir (Prodrug) ([3]; 30 Min, SOF-10 μM, SOF + A (0.3 µM amiodarone) + Ebel): 53.4 ± 9.5 pmol/million cells
Intracellular Concentration, Cleavage Intermediate Metabolite ([3]; 30 Min, SOF-10 μM, SOF + A (0.3 µM amiodarone) + Ebel, LOQ=17): B LOQ
Intracellular Concentration, Sofosbuvir (Prodrug) ([3]; 30 Min, SOF-3 mM, SOF): 19.5 ± 0.9 pmol/million cells
Intracellular Concentration, Cleavage Intermediate Metabolite [3, 11]: B LOQ
Intracellular Concentration, NTP Metabolite [3, 11]: B LOQ
Intracellular Concentration, NTP Metabolite ([3]; 30 Min, SOF-3 mM, SOF, LOQ=17): B LOQ
Intracellular Concentration, NTP Metabolite ([3]; 30 Min, SOF-10 mM, SOF + A (0.3 µM amiodarone) + Ebel, LOQ=17): B LOQ
Intracellular Concentration, NTP Metabolite ([3]; 30 Min, SOF-10 mM, SOF, LOQ=17): B LOQ
Intracellular Concentration, NTP Metabolite ([3]; SOF-10 mM, 4 Hours, 2a (SAR164653) 50 mM, LOQ=17): B LOQ
Intracellular Concentration, NTP Metabolite ([3]; SOF-10 mM, 4 Hours, 2a (SAR164653) 100 mM, LOQ=17): B LOQ
Intracellular Concentration, NTP Metabolite ([3]; SOF-10 mM, 30 Min, 2a (SAR164653) 0 mM, LOQ=17): B LOQ
Intracellular Concentration, NTP Metabolite ([3]; SOF-10 mM, 30 Min, 2a (SAR164653) 1 mM, LOQ=17): B LOQ
Intracellular Concentration, NTP Metabolite ([3]; SOF-10 mM, 30 Min, 2a (SAR164653) 10 mM, LOQ=17): B LOQ
Intracellular Concentration, NTP Metabolite ([3]; SOF-10 mM, 30 Min, 2a (SAR164653) 50 mM, LOQ=17): B LOQ
Intracellular Concentration, NTP Metabolite ([3]; SOF-10 mM, 30 Min, 2a (SAR164653) 100 mM, LOQ=17): B LOQ
Intracellular Concentration, Prodrug [3, 12]: 58.4 ± 6.0 pmol/million cells
Intracellular Concentration, Prodrug [3, 13]: 45.6 ± 2.0 pmol/million cells
Intracellular Concentration, NTP Metabolite [3, 14]: BLOQ
Intracellular Concentration, Prodrug [3, 15]: 50.1 ± 2.1 pmol/million cells
Intracellular Concentration, Prodrug [3, 16]: 46.7 ± 3.7 pmol/million cells
Intracellular Concentration, NTP Metabolite [3, 17]: BLOQ*
Cardiac sofosbuvir concentration ([4]; cumulative IV sofosbuvir + amiodarone): ~ 6 nmol/g tissue
Cardiac sofosbuvir concentration ([4]; cumulative IV sofosbuvir alone): ~ 8 nmol/g tissue

CC(C)OC(=O)[C@@H](C)NP(=O)(OC[C@H]1O[C@@H](n2ccc(=O)[nH]c2=O)[C@](C)(F)[C@@H]1O)Oc1ccccc1 (stereo partly drawn) [MNI-2, isopropyl (2R)-2-[[[(2R,3R,4R,5R)-5-(2,4-dioxopyrimidin-1-yl)-4-fluoro-3-hydroxy-4-methyl-tetrahydrofuran-2-yl]methoxy-phenoxy-phosphoryl]amino]propanoate]
Cleavage intermediate metabolite and NTP metabolite in cardiac tissue [1]: did not produce detectable levels
HR, % change from baseline ([5]; coadministration of 10 mg/kg MNI-2 and 2.5 mg/kg amiodarone IV (cumulative)): −9%
HR, % change from baseline ([5]; cumulative IV infusion dose 10 mg/kg MNI-2 alone): −3%
Effects on IMP-measured beating rate and IMP amplitude ([2]; 10 μM prodrug combined with 0.3 μM amiodarone, up to 18 h): failed to evoke changes over each drug alone
Effect on FP rate [2]: lack of effects
Effect on IMP amplitude [2]: lack of effects
Detection of cleavage intermediate metabolite or NTP in hiPSC-CMs ([3]; following application of prodrug (10 μM) ± amiodarone): no measurable concentrations
Intracellular Concentration, Prodrug [3, 12]: 61.0 ± 3.3 pmol/million cells
Intracellular Concentration, Cleavage Intermediate Metabolite [3, 18]: BLOQ
Intracellular Concentration, NTP Metabolite [3, 18]: BLOQ
Intracellular Concentration, Prodrug [3, 13]: 54.8 ± 3.3 pmol/million cells
Intracellular Concentration, Cleavage Intermediate Metabolite [3, 14]: BLOQ
Intracellular Concentration, NTP Metabolite [3, 14]: BLOQ
Intracellular Concentration, Prodrug [3, 15]: 173.0 ± 133.3 pmol/million cells
Intracellular Concentration, Cleavage Intermediate Metabolite [3, 19]: BLOQ
Intracellular Concentration, NTP Metabolite [3, 19]: BLOQ
Intracellular Concentration, Prodrug [3, 16]: 53.5 ± 4.5 pmol/million cells
Intracellular Concentration, Cleavage Intermediate Metabolite [3, 17]: BLOQ
Intracellular Concentration, NTP Metabolite [3, 17]: BLOQ
Effect on HR ([6]; IV infusion of MNI-2 (4, then 2 mg/kg/30 min), alone or after prior administration of amiodarone (3 mg/kg/30 min)): no effect
MBP or PR, QRS, QT ECG interval changes ([6]; IV infusion of MNI-2 alone or after pretreatment with amiodarone): did not result in MBP or PR, QRS, QT ECG interval changes
Plasma concentration [7]: 3048 ± 413 ng/mL
Plasma concentration of parent ([8]; agent + vehicle, End of Infusion 1): 4.2 ± 2.1 µM
Plasma concentration of parent ([8]; agent + vehicle, End of Infusion 2): 4.2 ± 0.9 µM
Plasma concentration of parent ([8]; agent + vehicle, End of Infusion 3): 3.9 ± 0.1 µM
Plasma concentration of parent ([8]; agent + vehicle, End of Infusion 4): 3.7 ± 1.0 µM
Plasma concentration of parent ([8]; treatment MNI-2+AMIO, End of Infusion 1): 3.0 ± 0.8 µM
Plasma concentration of parent ([8]; treatment MNI-2+AMIO, End of Infusion 2): 3.5 ± 1.0 µM
Plasma concentration of parent ([8]; treatment MNI-2+AMIO, End of Infusion 3): 3.7 ± 0.6 µM
Plasma concentration of parent ([8]; treatment MNI-2+AMIO, End of Infusion 4): 3.7 ± 0.9 µM

CCCCc1oc2ccccc2c1C(=O)c1cc(I)c(OCCN(CC)CC)c(I)c1 [amiodarone]
HR, % change from baseline [9]: −7%
